According to patent publication US20230295234A1, “ANTIMICROBIAL PEPTIDOMIMETICS” (SPEXIS AG, priority 2020, published 2023):
Read-outs that look alike come from different tables or passages of the source. Bridge positions count the residues as written; N and C are the ends. Square brackets hold non-standard residues; d marks the D form. Peptide text beside a SMILES is read from it. Pro(4R-NH2) = N[C@H]1CN[C@H](C(=O)O)C1; Hyp = O=C(O)[C@@H]1C[C@@H](O)CN1; Gly(N(CH2)3NH2) = NCCCNCC(=O)O; Pen = CC(C)(S)[C@H](N)C(=O)O; dDab = NCC[C@@H](N)C(=O)O; Dab = NCC[C@H](N)C(=O)O; Nlys = NCCCCNCC(=O)O

What was measured:
[1] = tested on: human red blood cells (hRBC); assay: Hemolysis of human red blood cells; format: cell-based; details: red cells of human, 1 h
Outline: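 PBS-washed human red blood cells (20% v/v) were incubated with peptide at 200 μg/mL for 1 h at 37 °C with shaking. Supernatant OD was read at 540 nm after 8-fold dilution. Hemolysis is expressed as percent of the water control.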

[2] = tested on: Escherichia coli MCR-1 Af 45
Outline: (§1)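 Activity is measured against peptides serially diluted two-fold in water with 0.002% final Polysorbate 80. The cells are in cation-adjusted MHII broth at roughly 5×10^5 CFU/mL, prepared from a 0.5 McFarland suspension in 0.85% NaCl.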

[3] = tested on: Klebsiella pneumoniae SSI3010; details: SSI3010
Outline: as §1

[4] = tested on: Escherichia coli ATCC 25922; details: ATCC 25922
Outline: as §1

[5] = Mueller-Hinton broth II, 18-20 hours at 35° C.

Row | Klebsiella pneumoniae SSI3010 MIC [3] | Escherichia coli ATCC 25922 MIC [4] | Escherichia coli MCR-1 Af 45 MIC ([2]; MCR-1 Af 45) | Compound | Hemolysis at 0.2 g/L [1] | Escherichia coli MCR-1 Af 45 MIC [2, 5]
1 | 0.125 mg/L | 0.03125 mg/L | 0.0625 mg/L | CCCC[C@H](NC(=O)[C@H](CCCNC(=N)N)NC(=O)[C@H](CCN)NC(=O)[C@@H]1CSSC[C@H](NC(=O)[C@H](Cc2ccc(O)cc2)NC(=O)[C@@H](NC(=O)[C@@H](NC(=O)[C@@H]2CCCN2C(=O)[C@@H](NC(=O)[C@@H]2CCCN2C(=O)[C@H](CCCCN)NC(=O)[C@H](N)CCCCN)C(C)C)[C@@H](C)CC)[C@@H](C)CC)C(=O)N[C@@H](CC(N)=O)C(=O)N[C@@H](CCCNC(=N)N)C(=O)N[C@@H](CCCNC(=N)N)C(=O)N[C@@H]([C@@H](C)O)C(=O)N[C@H](CCN)C(=O)N[C@@H](CCCCN)C(=O)N1)C(=O)O [Example 70] (HELM PEPTIDE1{[dK].K.P.V.P.I.I.Y.C.N.R.R.T.[NCC[C@@H](N[*:1])C(=O)[*:2]].K.C.[Dab].R.[Nle]}$PEPTIDE1,PEPTIDE1,9:R3-16:R3$$$V2.0) | 0% | 
2 | 0.25 mg/L | 0.25 mg/L | 0.125 mg/L | CC[C@H](C)[C@H](NC(=O)[C@@H]1C[C@@H](O)CN1C(=O)[C@@H](NC(=O)[C@@H]1C[C@@H](N)CN1C(=O)CNCCCCN)C(C)C)C(=O)N[C@H](C(=O)N[C@@H](Cc1ccc(O)cc1)C(=O)N[C@@H]1C(=O)N[C@@H](CC(N)=O)C(=O)N[C@@H](CCCNC(=N)N)C(=O)N[C@@H](CCN)C(=O)N[C@@H]([C@@H](C)O)C(=O)N[C@H](CCN)C(=O)N[C@@H](CCCCN)C(=O)N[C@H](C(=O)N[C@@H](Cc2ccc(O)cc2)C(=O)N[C@@H](CCCNC(=N)N)C(=O)N[C@@H](Cc2ccc(O)cc2)C(=O)O)CSSC1(C)C)[C@@H](C)O [Example 59, Nlys-Pro((4R)NH2)-Val-Hyp-Ile-Thr-Tyr-Pen-Asn-Arg-Dab-Thr-^DDab-Lys-Cys-Tyr-Arg-Tyr] (H-[Nlys][Pro(4R-NH2)]V[Hyp]ITY[Pen]NR[Dab]T[dDab]KCYRY-OH; disulfide 8-15; N-terminus and C-terminus assumed) | 0% | 
3 | 0.125 mg/L | 0.0625 mg/L | 0.125 mg/L | CC[C@H](C)[C@H](NC(=O)[C@@H](NC(=O)[C@@H]1CCCN1C(=O)[C@@H](NC(=O)[C@@H]1CCCN1C(=O)[C@H](CCCCN)NC(=O)CNCCN)C(C)C)[C@@H](C)CC)C(=O)N[C@@H](Cc1ccc(O)cc1)C(=O)N[C@H]1CSSC(C)(C)[C@@H](C(=O)N[C@@H](CCN)C(=O)N[C@@H](CCCNC(=N)N)C(=O)N[C@@H](Cc2ccc(O)cc2)C(=O)O)NC(=O)[C@H](CCCCN)NC(=O)[C@@H](CCN)NC(=O)[C@H]([C@@H](C)O)NC(=O)[C@H](CCN)NC(=O)[C@H](CCCNC(=N)N)NC(=O)[C@H](CC(N)=O)NC1=O [Example 113] (HELM PEPTIDE1{[NCCNCC(=O)[*:2]].K.P.V.P.I.I.Y.C.N.R.[Dab].T.[NCC[C@@H](N[*:1])C(=O)[*:2]].K.[Pen].[Dab].R.Y}$PEPTIDE1,PEPTIDE1,9:R3-16:R3$$$V2.0) | 0% | 
4 | 0.125 mg/L | 0.0625 mg/L | 0.0625 mg/L | CC[C@H](C)[C@H](NC(=O)[C@@H]1C[C@@H](N)CN1C(=O)[C@@H](NC(=O)[C@@H]1C[C@@H](O)CN1C(=O)CNCCCN)C(C)C)C(=O)N[C@H](C(=O)N[C@@H](Cc1ccc(O)cc1)C(=O)N[C@@H]1C(=O)N[C@@H](CC(N)=O)C(=O)N[C@@H](CCCNC(=N)N)C(=O)N[C@@H](CCN)C(=O)N[C@@H]([C@@H](C)O)C(=O)N[C@H](CCN)C(=O)N[C@@H](CCCCN)C(=O)N[C@H](C(=O)N[C@@H](CCN)C(=O)N[C@@H](CCCNC(=N)N)C(=O)N[C@@H](Cc2ccc(O)cc2)C(=O)O)CSSC1(C)C)[C@@H](C)O [Example 45, Norn-Hyp-Val-Pro((4R)NH2)-Ile-Thr-Tyr-Pen-Asn-Arg-Dab-Thr-^DDab-Lys-Cys-Dab-Arg-Tyr] (H-[Gly(N(CH2)3NH2)][Hyp]V[Pro(4R-NH2)]ITY[Pen]NR[Dab]T[dDab]KC[Dab]RY-OH; disulfide 8-15) | 0% | 
5 | 0.125 mg/L | 0.25 mg/L | 0.125 mg/L | CC[C@H](C)[C@H](NC(=O)[C@@H](NC(=O)[C@@H]1CCCN1C(=O)[C@@H](NC(=O)[C@@H]1CCCN1C(=O)[C@H](CCCCN)NC(=O)[C@@H](N)CCCCN)C(C)C)[C@@H](C)CC)C(=O)N[C@@H](Cc1ccc(O)cc1)C(=O)N[C@H]1CSSC[C@@H](C(=O)N[C@@H](CCN)C(=O)N[C@@H](CCCNC(=N)N)C(=O)N[C@@H](Cc2ccc(O)cc2)C(=O)O)NC(=O)[C@H](CCCCN)NC(=O)[C@@H](CCN)NC(=O)[C@H]([C@@H](C)O)NC(=O)[C@H](CCN)NC(=O)CN(CCCNC(=N)N)C(=O)[C@H](CC(N)=O)NC1=O [Example 104] (HELM PEPTIDE1{K.K.P.V.P.I.I.Y.C.N.[N=C(N)NCCCN(CC(=O)[*:2])[*:1]].[Dab].T.[NCC[C@@H](N[*:1])C(=O)[*:2]].K.C.[Dab].R.Y}$PEPTIDE1,PEPTIDE1,9:R3-16:R3$$$V2.0; N-terminus assumed) | 0% | 
6 | 0.25 mg/L | 0.0625 mg/L | ≤0.03125 mg/L | CC[C@H](C)[C@H](NC(=O)CN(CCN)C(=O)[C@@H](NC(=O)[C@@H]1C[C@@H](O)CN1C(=O)[C@@H](N)CCCCN)C(C)C)C(=O)N[C@H](C(=O)N[C@@H](Cc1ccc(O)cc1)C(=O)N[C@@H]1C(=O)N[C@@H](CC(N)=O)C(=O)N[C@@H](CCCNC(=N)N)C(=O)N[C@@H](CCN)C(=O)N[C@@H]([C@@H](C)O)C(=O)N[C@H](CCN)C(=O)N[C@@H](CCCCN)C(=O)N[C@H](C(=O)N[C@@H](CCN)C(=O)N[C@@H](CCCNC(=N)N)C(=O)N[C@@H](Cc2ccc(O)cc2)C(=O)O)CSSC1(C)C)[C@@H](C)O [Example 47, Lys-Hyp-Val-Ndab-Ile-Thr-Tyr-Pen-Asn-Arg-Dab-Thr-^DDab-Lys-Cys-Dab-Arg-Tyr] (HELM PEPTIDE1{K.[Hyp].V.[NCCN(CC(=O)[*:2])[*:1]].I.T.Y.[Pen].N.R.[Dab].T.[NCC[C@@H](N[*:1])C(=O)[*:2]].K.C.[Dab].R.Y}$PEPTIDE1,PEPTIDE1,8:R3-15:R3$$$V2.0) | 0% | 

Row | Compound | Klebsiella pneumoniae SSI3010 MIC [3] | Escherichia coli ATCC 25922 MIC [4] | Escherichia coli MCR-1 Af 45 MIC ([2]; MCR-1 Af 45) | Hemolysis at 0.2 g/L [1] | Escherichia coli MCR-1 Af 45 MIC [2, 5]
7 | CC[C@H](C)[C@H](NC(=O)[C@@H]1C[C@@H](O)CN1C(=O)[C@@H](N)C(C)C)C(=O)N[C@@H](CC(C)C)C(=O)N[C@@H](Cc1ccc(O)cc1)C(=O)N[C@@H]1C(=O)N[C@@H](CC(N)=O)C(=O)N[C@@H](CCCNC(=N)N)C(=O)N[C@@H](CCN)C(=O)N[C@@H]([C@@H](C)O)C(=O)N[C@H](CCN)C(=O)N[C@@H](CCCCN)C(=O)N[C@H](C(=O)N[C@@H](CCN)C(=O)N[C@@H](CCCNC(=N)N)C(=O)N[C@@H](Cc2ccc(O)cc2)C(=O)O)CSSC1(C)C [Example 156] (HELM PEPTIDE1{V.[Hyp].I.L.Y.[Pen].N.R.[Dab].T.[NCC[C@@H](N[*:1])C(=O)[*:2]].K.C.[Dab].R.Y}$PEPTIDE1,PEPTIDE1,6:R3-13:R3$$$V2.0) | 0.5 mg/L | 0.25 mg/L |  | 0% | 0.25 mg/L
8 | CC[C@H](C)[C@H](NC(=O)[C@@H]1C[C@@H](O)CN1C(=O)[C@@H](N)C(C)C)C(=O)N[C@H](C(=O)N[C@@H](Cc1ccc(O)cc1)C(=O)N[C@@H]1C(=O)N[C@@H](CC(N)=O)C(=O)N[C@@H](CCCNC(=N)N)C(=O)N[C@@H](CCN)C(=O)N[C@@H]([C@@H](C)O)C(=O)N[C@H](CCN)C(=O)N[C@@H](CCN)C(=O)N[C@H](C(=O)N[C@@H](CCN)C(=O)N[C@@H](CCCNC(=N)N)C(=O)N[C@@H](Cc2ccc(O)cc2)C(=O)O)CSSC1(C)C)[C@@H](C)O [Example 174] (HELM PEPTIDE1{V.[Hyp].I.T.Y.[Pen].N.R.[Dab].T.[NCC[C@@H](N[*:1])C(=O)[*:2]].[Dab].C.[Dab].R.Y}$PEPTIDE1,PEPTIDE1,6:R3-13:R3$$$V2.0) | 0.25 mg/L | 0.125 mg/L |  | 0% | 0.0625 mg/L
9 | CC[C@H](C)[C@H](NC(=O)[C@@H](NC(=O)[C@@H]1CCCN1C(=O)[C@@H](O)C(C)C)[C@@H](C)CC)C(=O)N[C@@H](Cc1ccc(O)cc1)C(=O)N[C@H]1CSSC[C@@H](C(=O)N[C@@H](CCN)C(=O)N[C@@H](CCCNC(=N)N)C(=O)N[C@@H](Cc2ccc(O)cc2)C(=O)O)NC(=O)[C@H](CCCCN)NC(=O)[C@@H](CCN)NC(=O)[C@H]([C@@H](C)O)NC(=O)[C@H](CCN)NC(=O)[C@H](CCCNC(=N)N)NC(=O)[C@H](CC(N)=O)NC1=O [Example 146] (HELM PEPTIDE1{[CC(C)[C@H](O)C(=O)[*:2]].P.I.I.Y.C.N.R.[Dab].T.[NCC[C@@H](N[*:1])C(=O)[*:2]].K.C.[Dab].R.Y}$PEPTIDE1,PEPTIDE1,6:R3-13:R3$$$V2.0) | 0.5 mg/L | 0.5 mg/L |  | 0% | 0.5 mg/L
10 | CC[C@H](C)[C@H](NC(=O)[C@@H](NC(=O)[C@@H]1C[C@@H](O)CN1C(=O)[C@@H](N)C(C)C)[C@@H](C)CC)C(=O)N[C@@H](Cc1ccc(O)cc1)C(=O)N[C@H]1CSSC[C@@H](C(=O)N[C@@H](CCN)C(=O)N[C@@H](CCCNC(=N)N)C(=O)N[C@@H](Cc2ccc(O)cc2)C(=O)O)NC(=O)[C@H](CCCCN)NC(=O)[C@@H](CCN)NC(=O)[C@H]([C@@H](C)O)NC(=O)[C@H](CCN)NC(=O)[C@H](CCCNC(=N)N)NC(=O)[C@H](CC(N)=O)NC1=O [Example 143] (HELM PEPTIDE1{V.[Hyp].I.I.Y.C.N.R.[Dab].T.[NCC[C@@H](N[*:1])C(=O)[*:2]].K.C.[Dab].R.Y}$PEPTIDE1,PEPTIDE1,6:R3-13:R3$$$V2.0) | 0.125 mg/L | 0.0625 mg/L |  | 0% | 0.03125 mg/L
